Measurements published in patent US8685970B2, “Quinolines and related analogs as sirtuin modulators” (GlaxoSmithKline, LLC, priority 2008, dated 2014).

What follows are compounds tested against T1, SIRT1 (Homo sapiens, UniProt Q96EB6) (assay: Mass spectrometry based SIRT1 deacetylation assay (activation)). Conditions: 10 nM SIRT1, 0.5 μM peptide substrate, 120 μM βNAD+, 25 min at 25° C.
T1 sequence (Q96EB6 1-747): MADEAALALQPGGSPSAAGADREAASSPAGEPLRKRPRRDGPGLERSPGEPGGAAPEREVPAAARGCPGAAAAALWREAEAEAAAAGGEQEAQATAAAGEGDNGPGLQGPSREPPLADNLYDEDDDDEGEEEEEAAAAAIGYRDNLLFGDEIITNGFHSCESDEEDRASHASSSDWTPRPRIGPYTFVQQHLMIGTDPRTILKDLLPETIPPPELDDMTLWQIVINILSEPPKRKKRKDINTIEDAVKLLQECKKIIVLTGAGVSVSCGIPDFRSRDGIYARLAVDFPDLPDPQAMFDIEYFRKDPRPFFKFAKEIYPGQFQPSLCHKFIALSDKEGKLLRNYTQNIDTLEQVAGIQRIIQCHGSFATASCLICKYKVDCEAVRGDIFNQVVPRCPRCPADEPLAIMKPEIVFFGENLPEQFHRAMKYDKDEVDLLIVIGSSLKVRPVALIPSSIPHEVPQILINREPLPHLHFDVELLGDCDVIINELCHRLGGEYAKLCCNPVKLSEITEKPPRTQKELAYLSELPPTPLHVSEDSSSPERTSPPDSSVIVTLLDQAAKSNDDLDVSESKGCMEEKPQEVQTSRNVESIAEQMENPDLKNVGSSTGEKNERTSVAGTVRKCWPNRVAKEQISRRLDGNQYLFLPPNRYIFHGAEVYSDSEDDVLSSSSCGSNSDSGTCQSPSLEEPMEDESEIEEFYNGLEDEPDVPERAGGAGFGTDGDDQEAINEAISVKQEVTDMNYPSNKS
Type: biochemical
Method in brief: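 Recombinant N-His-tagged SIRT1 (E. coli BL21(DE3)), 10 nM, incubated 25 min at 25 °C with 0.5 μM biotin/5TMR-labelled acetyl-p53-derived 20-mer peptide and 120 μM βNAD+ in Tris-acetate pH 8 buffer with DTT and BSA. Formic acid stop; MS quantifies acetylated vs deacetylated peptide. EC1.5 = concentration giving 150% activation versus DMSO.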

Row | SMILES | % Fold Act. (percent maximum fold activation) | EC1.5 (concentration of test compound that results in 150% activation of SIRT1)
1 | O=C(Nc1ccccn1)c1cccc2ncc(-c3cccc(C(F)(F)F)c3)nc12 [Compound 129] | B (Fold Activation <200%) | A (EC1.5<1.0 uM)
2 | O=C(Nc1ccncn1)c1cccc2ncc(-c3cccc(C(F)(F)F)c3)nc12 [Compound 130] | B (Fold Activation <200%) | A (EC1.5<1.0 uM)
3 | O=C(Nc1nccs1)c1cccc2ccc(-c3cccc(OC4CCNCC4)c3)nc12 [Compound 131] | A (Fold activation >200%) | A (EC1.5<1.0 uM)
4 | O=C(Nc1cccnc1)c1cccc2ccc(-c3cccc(OC4CCNCC4)c3)nc12 [Compound 132] | A (Fold activation >200%) | A (EC1.5<1.0 uM)
5 | O=C(Nc1ccncn1)c1cccc2ccc(-c3cccc(OC4CCNCC4)c3)nc12 [Compound 133] | A (Fold activation >200%) | A (EC1.5<1.0 uM)
6 | Cc1cnc(NC(=O)c2cccc3ccc(-c4cccc(OC5CCNCC5)c4)nc23)s1 [Compound 134] | A (Fold activation >200%) | A (EC1.5<1.0 uM)
7 | FC(F)(F)c1cccc(-c2ccc3cccc(NCc4cccnc4)c3n2)c1 [Compound 135] |  | C (EC1.5>25 uM)
8 | FC(F)(F)c1cccc(-c2ccc3cccc(NCc4ccccn4)c3n2)c1 [Compound 136] |  | C (EC1.5>25 uM)
9 | FC(F)(F)c1cccc(-c2ccc3cccc(NCc4nccs4)c3n2)c1 [Compound 137] |  | C (EC1.5>25 uM)
10 | FC(F)(F)c1cccc(-c2ccc3cccc(NCC4CCCC4)c3n2)c1 [Compound 138] |  | C (EC1.5>25 uM)
11 | FC(F)(F)Oc1cccc(-c2ccc3cccc(NCc4cccnc4)c3n2)c1 [Compound 139] |  | C (EC1.5>25 uM)
12 | FC(F)(F)Oc1cccc(-c2ccc3cccc(NCc4nccs4)c3n2)c1 [Compound 140] |  | C (EC1.5>25 uM)
13 | FC(F)(F)Oc1cccc(-c2ccc3cccc(NCC4CCCC4)c3n2)c1 [Compound 141] |  | C (EC1.5>25 uM)
14 | O=C(Nc1cccc2ccc(-c3cccnc3)nc12)c1cnccn1 [Compound 142] | B (Fold Activation <200%) | A (EC1.5<1.0 uM)
15 | FC(F)(F)c1cccc(-c2ccc3cccc(CNC4CCCC4)c3n2)c1 [Compound 143] |  | C (EC1.5>25 uM)
16 | FC(F)(F)c1cccc(-c2ccc3cccc(CNC4CCOCC4)c3n2)c1 [Compound 144] |  | C (EC1.5>25 uM)
17 | c1cncc(CNc2cccc3ccc(-c4cccnc4)nc23)c1 [Compound 145] |  | C (EC1.5>25 uM)
18 | c1cncc(CNc2cccc3ccc(-c4ccncc4)nc23)c1 [Compound 146] |  | C (EC1.5>25 uM)
19 | O=C(Nc1nc(CN2CCCC2)cs1)c1cccc2ccc(-c3cccc(C(F)(F)F)c3)nc12 [Compound 147] | A (Fold activation >200%) | A (EC1.5<1.0 uM)
20 | O=C(Nc1nc(CN2CCCC2)cs1)c1cccc2ccc(-c3cccc(OC(F)(F)F)c3)nc12 [Compound 148] | A (Fold activation >200%) | A (EC1.5<1.0 uM)

Row | SMILES | % Fold Act. (percent maximum fold activation) | EC1.5 (concentration of test compound that results in 150% activation of SIRT1)
21 | O=C(Nc1ccc(OCC(O)CO)cc1)c1cccc2ccc(-c3cccc(C(F)(F)F)c3)nc12 (stereo not drawn) [Compound 149] | A (Fold activation >200%) | A (EC1.5<1.0 uM)
22 | O=C(Nc1ccc(OCC(O)CO)cc1)c1cccc2ccc(-c3cccc(OC(F)(F)F)c3)nc12 (stereo not drawn) [Compound 150] | A (Fold activation >200%) | A (EC1.5<1.0 uM)
23 | O=C(Nc1cccc(OCC(O)CO)c1)c1cccc2ccc(-c3cccc(C(F)(F)F)c3)nc12 (stereo not drawn) [Compound 151] | A (Fold activation >200%) | A (EC1.5<1.0 uM)
24 | O=C(Nc1cccc(OCC(O)CO)c1)c1cccc2ccc(-c3cccc(OC(F)(F)F)c3)nc12 (stereo not drawn) [Compound 152] | A (Fold activation >200%) | A (EC1.5<1.0 uM)
25 | O=C(Nc1cccc2ccc(-c3cc(F)cc(C(F)(F)F)c3)nc12)c1ccccc1 [Compound 153] |  | C (EC1.5>25 uM)
26 | O=C(Nc1cccc2ccc(-c3ccc(F)c(C(F)(F)F)c3)nc12)c1ccccn1 [Compound 154] | B (Fold Activation <200%) | A (EC1.5<1.0 uM)
27 | O=C(Nc1cccc2ccc(-c3ccncc3)nc12)c1cnccn1 [Compound 155] |  | C (EC1.5>25 uM)
28 | O=C(Nc1cccc2ccc(-c3cc(F)cc(C(F)(F)F)c3)nc12)c1cnccn1 [Compound 156] |  | C (EC1.5>25 uM)
29 | O=C(Nc1cccc2ccc(-c3ccc(F)c(C(F)(F)F)c3)nc12)c1cnccn1 [Compound 157] |  | C (EC1.5>25 uM)
30 | O=C(Nc1cccc2ccc(-c3ccc(F)c(C(F)(F)F)c3)nc12)c1cscn1 [Compound 158] |  | C (EC1.5>25 uM)
31 | O=C(Nc1cccc2ccc(-c3cc(F)cc(C(F)(F)F)c3)nc12)c1ccccn1 [Compound 159] |  | C (EC1.5>25 uM)
32 | O=C(Nc1cccc2ccc(-c3cc(F)cc(C(F)(F)F)c3)nc12)c1ccncc1 [Compound 160] |  | C (EC1.5>25 uM)
33 | O=C(Nc1cccc2ccc(-c3ccc(F)c(C(F)(F)F)c3)nc12)c1ccncc1 [Compound 161] |  | C (EC1.5>25 uM)
34 | FC(F)(F)c1ccccc1-c1ccc2cccc(NCc3cccnc3)c2n1 [Compound 162] |  | C (EC1.5>25 uM)
35 | CS(=O)(=O)c1cccc(-c2ccc3cccc(NCc4cccnc4)c3n2)c1 [Compound 163] |  | C (EC1.5>25 uM)
36 | c1cncc(CNc2cccc3ccc(-c4ccc5c(c4)OCO5)nc23)c1 [Compound 164] |  | C (EC1.5>25 uM)
37 | Fc1c(-c2ccc3cccc(NCc4cccnc4)c3n2)cccc1C(F)(F)F [Compound 165] |  | C (EC1.5>25 uM)
38 | Fc1ccc(-c2ccc3cccc(NCc4cccnc4)c3n2)cc1C(F)(F)F [Compound 166] |  | C (EC1.5>25 uM)
39 | Fc1ccc(C(F)(F)F)cc1-c1ccc2cccc(NCc3cccnc3)c2n1 [Compound 167] |  | C (EC1.5>25 uM)
40 | Fc1cc(-c2ccc3cccc(NCc4cccnc4)c3n2)cc(C(F)(F)F)c1 [Compound 168] |  | C (EC1.5>25 uM)
